Test results from patent US20090203700A1, “Azolylmethyloxiranes, Their Use for Controlling Phytopathogenic Fungi, and Compositions Comprising Them” (BASF SE, priority 2006, published 2009).

How the values were obtained:
Puccinia recondita = assay: Protective activity against Puccinia recondita on wheat (brown rust of wheat) (Puccrt P1); format: in vivo; conditions: 250 ppm active compound, sprayed to runoff on potted wheat seedlings, inoculated next day; untreated plants 90% infected
Method: The active compounds were prepared separately or jointly as a stock solution comprising 25 mg of active compound which was made up to 10 ml using a mixture of acetone and/or DMSO and the emulsifier Wettol EM 31 (wetting agent having emulsifying and dispersing action based on ethoxylated alkylphenols) in a volume ratio of solvent/emulsifier of 99:1. The mixture was then made up to 100 ml with water. This stock solution was diluted with the solvent/emulsifier/water mixture described to give the concentration of active compound stated below. Leaves of potted wheat seedlings were sprayed to runoff point with an aqueous suspension having the active compound concentration stated below. The next day, the treated plants were inoculated with a spore suspension of brown rust of wheat (Puccinia recondita). The plants were then placed in a chamber with high atmospheric humidity (90 to 95%) at 20 to 22° C. for 24 hours. During this time, the spores germinated and the germ tubes penetrated into the leaf tissue. The next day, the test plants were returned to the greenhouse and cultivated at temperatures between 20 and 22° C. and at 65 to 70% relative atmospheric humidity for a further 7 days. The extent of the rust fungus development on the leaves was then determined visually.

Pyrenophora teres = assay: Activity against net blotch of barley caused by Pyrenophora teres, 1 day protective application (Pyrnte P1); format: in vivo, Pyrenophora [syn. Drechslera] teres on barley; conditions: 250 ppm active compound, sprayed to runoff on potted barley seedlings, inoculated after 24 hours, assessed after 6 days; untreated plants 90% infected
Method: The active compounds were prepared separately or jointly as a stock solution comprising 25 mg of active compound which was made up to 10 ml using a mixture of acetone and/or DMSO and the emulsifier Wettol EM 31 (wetting agent having emulsifying and dispersing action based on ethoxylated alkylphenols) in a volume ratio of solvent/emulsifier of 99:1. The mixture was then made up to 100 ml with water. This stock solution was diluted with the solvent/emulsifier/water mixture described to give the concentration of active compound stated below. Leaves of potted barley seedlings were sprayed to runoff point with an aqueous suspension having the active compound concentration stated below. 24 hours after the spray coating had dried on, the test plants were inoculated with an aqueous spore suspension of Pyrenophora [syn. Drechslera] teres, the net blotch pathogen. The test plants were then placed in a greenhouse at temperatures between 20 and 24° C. and at 95 to 100% relative atmospheric humidity. After 6 days, the extent of the development of the disease was determined visually in % infection of the entire leaf area.

For `Fc1ccc([C@@]2(Cn3cncn3)O[C@@H]2c2cccnc2Cl)cc1` (racemic) [3-{(2RS,3SR)-3-[(1H-1,2,4-triazol-1-yl)methyl]-3-[4-fluorophenyl]oxiran-2-yl}-2-chloropyridine], the “infection (extent of rust fungus development on the leaves, determined visually)” value (Puccinia recondita) was “not more than 10%” and the “infection (% infection of the entire leaf area, determined visually)” value (Pyrenophora teres) was “not more than 20%”.
